Legend:
[1] = target: T1, Amine oxidase [flavin-containing] A (Homo sapiens, UniProt P21397); experiment: Inhibition of human recombinant MAO-A using p-tyramine as substrate assessed as H2O2 production at 100 uM after 15 mins by fluorescence assay; details: 0.25 h
T1 sequence (P21397 whole entry): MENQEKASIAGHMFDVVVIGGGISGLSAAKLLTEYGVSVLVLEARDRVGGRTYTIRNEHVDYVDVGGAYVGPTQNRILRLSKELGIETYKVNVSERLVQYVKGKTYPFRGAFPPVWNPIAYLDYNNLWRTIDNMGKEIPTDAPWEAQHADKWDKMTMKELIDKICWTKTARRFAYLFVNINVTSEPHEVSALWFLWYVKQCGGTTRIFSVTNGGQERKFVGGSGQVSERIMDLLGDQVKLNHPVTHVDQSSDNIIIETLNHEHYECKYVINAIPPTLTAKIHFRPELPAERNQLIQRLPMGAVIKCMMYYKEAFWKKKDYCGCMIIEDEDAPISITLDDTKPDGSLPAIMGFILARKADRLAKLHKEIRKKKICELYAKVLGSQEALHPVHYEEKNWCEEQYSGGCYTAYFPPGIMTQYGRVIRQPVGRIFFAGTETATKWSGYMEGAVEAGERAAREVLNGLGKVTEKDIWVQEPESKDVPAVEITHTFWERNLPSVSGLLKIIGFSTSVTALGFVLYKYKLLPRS

[2] = target: T2, Amine oxidase [flavin-containing] B (Homo sapiens, UniProt P27338); experiment: Inhibition of human recombinant MAO-B using p-tyramine as substrate assessed as H2O2 production after 15 mins by fluorescence assay
T2 sequence (P27338 whole entry): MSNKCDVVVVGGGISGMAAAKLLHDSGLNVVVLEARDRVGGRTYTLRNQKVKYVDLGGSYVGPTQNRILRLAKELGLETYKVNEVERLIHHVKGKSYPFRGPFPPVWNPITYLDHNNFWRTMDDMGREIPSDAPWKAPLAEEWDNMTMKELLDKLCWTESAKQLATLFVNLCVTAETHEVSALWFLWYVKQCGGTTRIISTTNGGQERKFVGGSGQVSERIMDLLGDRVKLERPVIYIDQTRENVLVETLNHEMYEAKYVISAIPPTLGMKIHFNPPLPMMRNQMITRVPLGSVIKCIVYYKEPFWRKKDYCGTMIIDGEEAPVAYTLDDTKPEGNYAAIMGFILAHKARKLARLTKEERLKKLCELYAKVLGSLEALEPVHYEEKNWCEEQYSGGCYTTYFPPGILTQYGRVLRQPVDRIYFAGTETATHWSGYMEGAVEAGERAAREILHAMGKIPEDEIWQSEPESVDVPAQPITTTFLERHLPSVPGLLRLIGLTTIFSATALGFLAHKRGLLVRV

[3] = target: Amyloid-beta precursor protein (Homo sapiens) (UniProt P05067); experiment: Inhibition of amyloid beta (1 to 42) (unknown origin) self-induced aggregation at 20 uM after 46 to 48 hrs by thioflavin-T fluorescence method
[4] = Permeability of the compound after 16 hrs by PAMPA; format: ADME; details: read-out: Peff
[5] = target: T2, Amine oxidase [flavin-containing] B; experiment: Irreversible inhibition of human MAO-B at 2 times IC50 using p-tyramine as substrate assessed as H2O2 production after 0 to 60 mins
[6] = Metal chelating activity of the compound assessed as formation of copper complex at 35 uM by UV-Vis spectrophotometry; format: physicochemical
[7] = Cytotoxicity against rat PC12 cells assessed as cell viability at 1 to 100 uM after 24 hrs by MTT assay; format: cell-based; details: pc-12, 24 h
[8] = Cytotoxicity against human SH-SY5Y cells assessed as cell viability at 1 to 100 uM after 24 hrs by MTT assay; format: cell-based
[9] = target: T2, Amine oxidase [flavin-containing] B; experiment: Ratio of pargyline IC50 to compound IC50 for human recombinant MAO-B

Amyloid-beta precursor protein (Homo sapiens), sequence (P05067 whole entry): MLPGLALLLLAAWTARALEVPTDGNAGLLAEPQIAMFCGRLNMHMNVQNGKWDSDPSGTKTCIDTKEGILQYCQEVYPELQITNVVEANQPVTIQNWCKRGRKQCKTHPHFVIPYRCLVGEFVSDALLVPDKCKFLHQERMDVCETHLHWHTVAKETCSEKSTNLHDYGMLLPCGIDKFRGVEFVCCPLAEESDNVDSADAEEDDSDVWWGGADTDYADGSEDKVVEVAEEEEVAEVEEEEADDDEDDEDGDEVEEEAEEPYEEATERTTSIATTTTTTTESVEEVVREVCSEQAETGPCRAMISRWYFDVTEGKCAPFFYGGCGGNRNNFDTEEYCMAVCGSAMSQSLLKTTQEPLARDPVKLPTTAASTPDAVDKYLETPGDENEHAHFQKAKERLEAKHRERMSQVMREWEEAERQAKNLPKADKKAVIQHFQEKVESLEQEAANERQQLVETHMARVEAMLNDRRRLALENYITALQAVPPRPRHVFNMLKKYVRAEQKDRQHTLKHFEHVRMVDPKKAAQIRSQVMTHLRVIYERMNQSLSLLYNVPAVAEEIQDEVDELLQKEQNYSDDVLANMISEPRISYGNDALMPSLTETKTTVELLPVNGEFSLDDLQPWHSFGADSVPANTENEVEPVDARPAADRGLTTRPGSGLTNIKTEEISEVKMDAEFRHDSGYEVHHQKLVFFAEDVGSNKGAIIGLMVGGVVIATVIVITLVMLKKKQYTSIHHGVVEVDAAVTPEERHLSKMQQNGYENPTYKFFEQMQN

| Structure (SMILES) | inhibition at 100 µM [1] | IC50 [2] | inhibition [3] | Papp at 16 h [4] | also measured |
| --- | --- | --- | --- | --- | --- |
| O=c1oc2cc(/N=C/c3ccccc3O)ccc2c2c1CCCC2 | 17.2% | 841 nM | 53.7% | – | – |
| O=c1oc2cc(/N=C/c3ccc(O)cc3O)ccc2c2c1CCC2 | 67.6% | 217 nM | 56.4% | 4.7 ×10⁻⁶ cm/s | – |
| C[C@]12CC[C@@H]3c4ccc(O)cc4CC[C@H]3[C@@H]1CC[C@@H]2O [ESTRADIOL] | – | – | – | 8.33 ×10⁻⁶ cm/s | – |
| O=c1oc2cc(/N=C/c3ccc(O)cc3O)ccc2c2c1CCCC2 | 22.6% | 3420 nM | 58.5% | – | – |
| C[C@]12C[C@H](O)[C@H]3[C@@H](CCC4=CC(=O)CC[C@@]43C)[C@@H]1CC[C@@H]2C(=O)CO [CORTICOSTERONE] | – | – | – | 1.09 ×10⁻⁶ cm/s | – |
| O=c1oc2cc(/N=C/c3ccccc3O)ccc2c2c1CCC2 | 3.5% | 81 nM | 52.9% | 8.9 ×10⁻⁶ cm/s | inhibition (INH) [5]: Active; Activity [6]: Active; Activity [7]: Non-toxic; Activity [8]: Non-toxic; Ratio IC50 [9]: 2 |
| Cc1ccc(/C=N/c2ccc3c(C)cc(=O)oc3c2)c(O)c1 | – | – | 49.4% | – | – |
| Cc1c(C)c2ccc(/N=C/c3ccccc3O)cc2oc1=O | – | – | 53.9% | 10.6 ×10⁻⁶ cm/s | – |
| Cc1c(Cl)c(=O)oc2cc(/N=C/c3ccc(O)cc3O)ccc12 | – | – | 60.2% | – | – |
| Cc1cc(=O)oc2cc(/N=C/c3ccc(O)cc3O)ccc12 | – | – | 50.3% | – | – |
| Cc1c(C)c2ccc(/N=C/c3ccc(O)cc3O)cc2oc1=O | – | – | 57.6% | 6.7 ×10⁻⁶ cm/s | – |
| Cc1cc(=O)oc2cc(/N=C/c3ccc(Br)cc3O)ccc12 | – | – | 51.5% | – | – |
| COc1ccc(/C=N/c2ccc3c(C)cc(=O)oc3c2)c(O)c1 | – | – | 50.2% | – | – |
| NCCc1ccc(O)c(O)c1 [DOPAMINE] | – | – | – | 0.83 ×10⁻⁶ cm/s | – |
| CN1C(C(=O)Nc2ccccn2)=C(O)c2ccccc2S1(=O)=O [PIROXICAM] | – | – | – | 1.72 ×10⁻⁶ cm/s | – |

The next lines start with results.

| inhibition at 100 µM [1] | IC50 [2] | inhibition [3] | Papp at 16 h [4] | Structure (SMILES) | also measured |
| --- | --- | --- | --- | --- | --- |
| 17.7% | 1680 nM | 49.1% | – | Cc1c(C)c2ccc(/N=C/c3ccccc3O)cc2[nH]c1=O | – |
| – | – | 47.7% | 12.3 ×10⁻⁶ cm/s | Cc1c(C)c2ccc(NCc3ccccc3O)cc2oc1=O | – |
| 54.2% | 12300 nM | 35.6% | – | Cc1cc(=O)[nH]c2cc(/N=C/c3ccccc3O)ccc12 | – |
| 39.4% | 20100 nM | 36.1% | – | Cc1cc(=O)oc2cc(NCc3ccccc3O)ccc12 | – |
| 53.6% | 1240 nM | 43.7% | – | O=c1oc2cc(NCc3ccccc3O)ccc2c2c1CCCC2 | – |
| 23.6% | 9330 nM | 41.6% | – | O=c1oc2cc(NCc3ccccc3O)ccc2c2c1CCC2 | – |
| – | – | 47.6% | – | Cc1c(Cl)c(=O)oc2cc(NCc3ccccc3O)ccc12 | – |
| 47.2% | 723 nM | 44.8% | – | Cc1cc(=O)oc2cc(/N=C/c3ccccc3O)ccc12 | – |
| – | – | 32.6% | – | Cc1cc(=O)[nH]c2cc(NCc3ccccc3O)ccc12 | – |
| – | – | 49.3% | – | Cc1c(Cl)c(=O)oc2cc(/N=C/c3ccccc3O)ccc12 | – |
